Here are results for two compounds from publication PMC9596378, “Discovery and molecular basis of subtype-selective cyclophilin inhibitors” (Nature Chemical Biology, 2022).

Assay in all cases: Chymotrypsin coupled prolyl-isomerase assay
In one assay the target is T1, PPWD1 (Homo sapiens, UniProt Q96BP3).
T1 construct: PPWD1 (UniProtKB Entry Q96BP3: residues 473–646); host or cells: E. coli BL21(DE3)
T1 sequence (Q96BP3 473-646): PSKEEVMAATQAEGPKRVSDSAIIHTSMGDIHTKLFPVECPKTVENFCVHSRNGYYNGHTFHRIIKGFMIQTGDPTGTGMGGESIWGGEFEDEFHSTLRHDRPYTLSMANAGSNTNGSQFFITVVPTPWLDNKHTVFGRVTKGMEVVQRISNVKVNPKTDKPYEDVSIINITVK
Format: biochemical. The conditions noted are these: wild-type PPWD1; read-out: Wild-Type Cyclophilin Prolyl Isomerase Inhibition IC50 Values, PPWD1.

The target in a further assay is T2, PPIL1 (Homo sapiens, UniProt Q9Y3C6).
T2 construct: PPIL1 (UniProtKB Entry Q9Y3C6: residues 1–166); made in house; host or cells: E. coli BL21(DE3)
T2 sequence (Q9Y3C6 1-166): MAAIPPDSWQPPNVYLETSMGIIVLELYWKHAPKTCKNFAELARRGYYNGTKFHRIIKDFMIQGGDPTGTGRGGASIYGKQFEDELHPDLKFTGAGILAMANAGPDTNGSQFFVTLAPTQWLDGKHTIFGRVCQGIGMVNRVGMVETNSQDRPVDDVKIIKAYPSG
Format: biochemical. The conditions noted are these: wild-type PPIL1; read-out: Wild-Type Cyclophilin Prolyl Isomerase Inhibition IC50 Values, PPIL1.

Another assay addresses T3, CypA (Homo sapiens, UniProt P62937).
T3 construct: PPIA (UniProtKB Entry P62937: residues 1–165); made in house; host or cells: E. coli BL21(DE3)
The format is biochemical. The following applies: wild-type CypA; read-out: Wild-Type Cyclophilin Prolyl Isomerase Inhibition IC50 Values, CypA. As for the experimental part:
(§1) Adapting a previously described protocol, with an Agilent Bravo Velocity 11 with a 384ST head, 90 µL assay buffer (25 mM HEPES pH 7.3, 100 mM NaCl, 0.01% Triton X-100) containing 5.28 nM cyclophilin was added into a flat, clear-bottom, black 384-well plate pre-chilled in a Corning CoolBox at 2–3 °C. Five microliters of compound pre-dissolved in 5% DMSO/assay buffer was then added to appropriate wells and incubated at 2–3 °C for 5 min. Five microliters of 0.5 mM α-chymotrypsin from bovine pancreas (Type II, lyophilized powder, Millipore-Sigma) in 20% 1 mM HCl/Assay Buffer was then added to each well and incubated at 2–3 °C for 5 min. The plate was then quickly transferred to a FLIPR Tetra High-Throughput Cellular Screening System (Molecular Devices). Using the internal liquid handling system of the FLIPR, 1 µL 0.5 mM Suc-AAPF-AMC (Chymotrypsin Substrate II, Millipore-Sigma) dissolved in 0.55 M LiCl/2,2,2-trifluoroethanol was added to each well, which was then mixed for 5 s, followed by immediate fluorescence measurements every 1 s for 330 s using a 360–380 nm excitation LED module and a 400–460 nm emission filter. Final concentrations of the plate include 5 nM cyclophilin, 0.25% DMSO, 25 µM α-chymotrypsin, 5 µM Suc-AAPF-AMC. Raw fluorescence data was analyzed by non-linear regression analysis with Prism v.9 by fitting one-phase association curves to each well. […] Rate constants calculated for each well (s^−1) were then normalized to substrate only (no prolyl-isomerase) and enzyme + substrate only controls. IC50 values were calculated as the value at which 50% inhibition was achieved on the non-linear regression fitted curve of each compound.

In another assay the target is T4, CypG (Homo sapiens, UniProt Q13427).
T4 construct: PPIG (UniProtKB Entry Q13427: residues 1–179); His6 with thrombin site (pET28a LIC leader) (N); host or cells: E. coli BL21(DE3)
T4 sequence (Q13427 1-179): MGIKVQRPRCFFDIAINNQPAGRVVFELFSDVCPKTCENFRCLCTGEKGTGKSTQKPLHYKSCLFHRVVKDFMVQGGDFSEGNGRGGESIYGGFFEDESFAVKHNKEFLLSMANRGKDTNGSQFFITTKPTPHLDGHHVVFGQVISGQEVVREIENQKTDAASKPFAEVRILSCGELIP
The format is biochemical. The following applies: wild-type CypG; read-out: Wild-Type Cyclophilin Prolyl Isomerase Inhibition IC50 Values, CypG. As for the experimental part: as §1

Another assay deals with T5, CypH (Homo sapiens, UniProt O43447).
T5 construct: PPIH (UniProtKB Entry O43447: residues 1–177); His6 with TEV site (2BT vector leader) (N); made in house; host or cells: E. coli BL21(DE3)
T5 sequence (O43447 whole entry, the tested form may be a part): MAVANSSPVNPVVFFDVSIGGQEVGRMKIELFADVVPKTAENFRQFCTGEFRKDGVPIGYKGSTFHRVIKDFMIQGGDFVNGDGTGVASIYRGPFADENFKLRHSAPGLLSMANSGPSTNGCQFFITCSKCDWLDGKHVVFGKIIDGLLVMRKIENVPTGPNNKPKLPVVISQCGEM
The format is biochemical. The following applies: wild-type CypH; read-out: Wild-Type Cyclophilin Prolyl Isomerase Inhibition IC50 Values, CypH. As for the experimental part: as §1

For the next assay, the target named is CypD (Homo sapiens, UniProt P30405). The conditions noted are these: for IC50: read-out: Wild-Type Cyclophilin Prolyl Isomerase Inhibition IC50 Values, CypD, wild-type CypD.
Chain of CypD (P30405 45-207): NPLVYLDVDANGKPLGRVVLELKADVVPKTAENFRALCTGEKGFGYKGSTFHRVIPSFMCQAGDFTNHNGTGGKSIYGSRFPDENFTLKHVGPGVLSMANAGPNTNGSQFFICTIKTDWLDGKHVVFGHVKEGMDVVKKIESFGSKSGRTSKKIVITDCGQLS

SMILES strings stand for the structures.

T3 sequence (P62937 whole entry, the tested form may be a part): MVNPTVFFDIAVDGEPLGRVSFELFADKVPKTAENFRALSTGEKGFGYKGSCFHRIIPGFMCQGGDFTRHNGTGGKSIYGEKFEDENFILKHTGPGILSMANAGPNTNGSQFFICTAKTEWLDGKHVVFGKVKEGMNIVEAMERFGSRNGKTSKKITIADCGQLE

For orientation: IC50 means the concentration that inhibits the measured activity by half. Regarding `C[N+]1=C(C=CC=CC=C2N(CCCCCC(=O)NCCNC(=O)C3CCNC(=O)C=CC(=O)N4CCCC(Cc5ccccc5)(C4)C(=O)NC(Cc4ccc(-c5ccc(CC(C(=O)O)C(=O)O)cc5)cc4)C(=O)NCc4ccccc4CC(=O)N3)c3ccccc3C2(C)C)C(C)(C)c2ccccc21` (centres unmarked) [*B52-Cy5], the 50% inhibitory concentration (IC50) at PPWD1, on PPIL1, on CypA, at CypG, at CypH and on CypD was above 10 µM throughout. In addition, the “CypD prolyl-isomerase inhibition (in words)” value at CypD is “do not inhibit CypD in vitro”.
As for `C[N+]1=C(C=CC=CC=C2N(CCCCCC(=O)NCCNC(=O)C3CCNC(=O)C=CC(=O)N4CCCC(Cc5ccccc5)(C4)C(=O)NC(Cc4ccc(-c5ccc(C(CC(=O)O)CC(=O)O)cc5)cc4)C(=O)NCc4ccccc4CC(=O)N3)c3ccccc3C2(C)C)C(C)(C)c2ccccc21` (centres unmarked) [*B53-Cy5], the IC50 on PPWD1, at PPIL1, at CypA, on CypG, at CypH and at CypD was above 10 µM each time. Further, on CypD, the “CypD prolyl-isomerase inhibition (in words)” value is “do not inhibit CypD in vitro”.
